Measured values: PubChem BioAssay AID328 (DTP/NCI, 2004)
Where “and” joins values, the source holds several entries; their conditions need not be identical. Equal entries are not always repeated. Inconclusive results and toxic doses are left out.

Test system: BDF1 mice, P388 leukemia ip, median survival T/C
Assay: NCI In Vivo Anticancer Drug Screen. Data for tumor model P388 Leukemia (intraperitoneal) in B6D2F1 (BDF1) mice
Settings: endpoint: median survival time, higher = longer survival
Outline: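 In tumour-bearing mice, survival after compound treatment is set against the vehicle group and given as a quotient.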

[1] = dose: 3.0 mg/kg/injection, schedule: Q01DX009 (ip), vehicle: saline with Tween-80
[2] = dose: 6.0 mg/kg/injection, schedule: Q01DX009 (ip), vehicle: saline with Tween-80
[3] = dose: 100.0 mg/kg/injection, schedule: Q04DX003 (ip), vehicle: saline
[4] = dose: 200.0 mg/kg/injection, schedule: Q04DX003 (ip), vehicle: saline
[5] = dose: 50.0 mg/kg/injection, schedule: Q01DX009 (ip), vehicle: saline with Tween-80
[6] = dose: 100.0 mg/kg/injection, schedule: Q01DX009 (ip), vehicle: saline with Tween-80
[7] = dose: 200.0 mg/kg/injection, schedule: Q01DX009 (ip), vehicle: saline with Tween-80
[8] = dose: 25.0 mg/kg/injection, schedule: Q01DX009 (ip), vehicle: saline with Tween-80
[9] = dose: 100.0 mg/kg/injection, schedule: Q04DX003 (ip), vehicle: saline with Tween-80
[10] = dose: 200.0 mg/kg/injection, schedule: Q04DX003 (ip), vehicle: saline with Tween-80
[11] = dose: 100.0 mg/kg/injection, schedule: Q01DX009 (ip), vehicle: Klucel (hydroxypropylcellulose) (HPC)
[12] = dose: 100.0 mg/kg/injection, schedule: Q04DX003 (ip), vehicle: Klucel (hydroxypropylcellulose) (HPC)
[13] = dose: 200.0 mg/kg/injection, schedule: Q01DX009 (ip), vehicle: Klucel (hydroxypropylcellulose) (HPC)
[14] = dose: 200.0 mg/kg/injection, schedule: Q04DX003 (ip), vehicle: Klucel (hydroxypropylcellulose) (HPC)
[15] = dose: 400.0 mg/kg/injection, schedule: Q01DX009 (ip), vehicle: Klucel (hydroxypropylcellulose) (HPC)
[16] = dose: 400.0 mg/kg/injection, schedule: Q04DX003 (ip), vehicle: Klucel (hydroxypropylcellulose) (HPC)

`C[C@]12CC[C@H]3[C@@H](CCC4=C[C@@H](OC5OCC(OC6OC(CO)C(O)C(O)C6O)C(O)C5O)CC[C@@]43C=O)[C@@]1(O)CCC2C1=CC(=O)OC1` (some centres undefined) was tested, and the T/C (dose: 2.5 mg/kg/injection, schedule: Q01DX009 (ip), vehicle: saline) was 122 % of control and the T/C (dose: 5.0 mg/kg/injection, schedule: Q01DX009 (ip), vehicle: saline) was 111 % of control.
With `N#[N+]N=c1c(=NN=[N-])c(=O)c2ccccc2c1=O` the T/C [1] was 90 % of control, the T/C [2] was 87 % of control and the T/C (dose: 12.0 mg/kg/injection, schedule: Q01DX009 (ip), vehicle: saline with Tween-80) was 95 % of control.
In the case of `CC1CCC2(C)CCC(C(C)C)C2(O)CC1` (centres undefined), the T/C (dose: 100.0 mg/kg/injection, schedule: Q01DX009 (ip), vehicle: saline) is reported as 103 % of control, the T/C [3] is reported as 100 % of control and the T/C [4] is reported as 109 % of control. For the same compound, the T/C (dose: 400.0 mg/kg/injection, schedule: Q01DX009 (ip), vehicle: saline) was 111 % of control and the T/C (dose: 400.0 mg/kg/injection, schedule: Q04DX003 (ip), vehicle: saline) was 100 % of control.
For `CC(C)c1nsc2c1C(=O)NC(C(C)(C)C)N2` (centres undefined), the T/C [5] was 109 % of control, the T/C [6] was 89 % of control and the T/C [7] was 95 % of control.
`CN(C)P(=O)(Oc1ccccc1)N(C)C` was tested, and the T/C [8] was 94 % of control, the T/C [5] was 120 % of control and the T/C [6] was 102 % of control and 103 % of control. The T/C [7] was 100 % of control.
In the case of `CCC1(O)CC(OC2CC(N(C)C)C(OC3CC(O)C(OC4CCC(=O)C(C)O4)C(C)O3)C(C)O2)c2c(cc3c(c2O)C(=O)c2c(O)ccc(O)c2C3=O)C1C(=O)OC` (centres undefined), the T/C (dose: 2.88 mg/kg/injection, schedule: Q04DX003 (ip), vehicle: water) is reported as 181 % of control, the T/C (dose: 4.8 mg/kg/injection, schedule: Q04DX003 (ip), vehicle: water) is reported as 236 % of control and the T/C (dose: 1:8.0 dilution, schedule: Q01DX009 (ip), vehicle: saline) is reported as 173 % of control. The T/C (dose: 1:64.0 dilution, schedule: Q01DX009 (ip), vehicle: saline) was 116 % of control.
With `COc1ccc2c(OC)c3ccoc3nc2c1OC` the T/C (dose: 1.57 mg/kg/injection, schedule: Q01DX009 (ip), vehicle: Klucel (hydroxypropylcellulose) (HPC)) was 89 % of control, the T/C (dose: 3.13 mg/kg/injection, schedule: Q01DX009 (ip), vehicle: Klucel (hydroxypropylcellulose) (HPC)) was 89 % of control and the T/C (dose: 6.25 mg/kg/injection, schedule: Q01DX009 (ip), vehicle: Klucel (hydroxypropylcellulose) (HPC)) was 101 % of control.
With `CC(C)CC(=O)CC1(C)CCC(c2ccoc2)O1` (centres undefined) the T/C [8] was 96 % of control and 100 % of control, the T/C [5] was 97 % of control and 105 % of control and the T/C [6] was 103 % of control and 110 % of control. The T/C [7] was 117 % of control.
With `C1OCC2[CH2][Hg][S][Hg][CH2]C1O2` the T/C (dose: 1.25 mg/kg/injection, schedule: Q01DX010 (ip), vehicle: saline) was 109 % of control, the T/C (dose: 2.5 mg/kg/injection, schedule: Q01DX010 (ip), vehicle: saline) was 104 % of control and the T/C (dose: 5.0 mg/kg/injection, schedule: Q01DX010 (ip), vehicle: saline) was 109 % of control. For the same compound, the T/C (dose: 10.0 mg/kg/injection, schedule: Q01DX010 (ip), vehicle: saline) was 122 % of control.
With `O=NN(CCBr)C(=O)NC1CCCCC1` the T/C (dose: 1.5 mg/kg/injection, schedule: Q01DX009 (ip), vehicle: saline with Tween-80) was 109 % of control, the T/C [1] was 109 % of control and the T/C [2] was 113 % of control. For the same compound, the T/C (dose: 100.0 mg/kg/injection, schedule: Q01DX009 (ip), vehicle: gum acacia) was 103 % of control, the T/C [6] was 122 % of control and the T/C (dose: 100.0 mg/kg/injection, schedule: Q04DX003 (ip), vehicle: gum acacia) was 113 % of control. For the same compound, the T/C [9] was 109 % of control, the T/C (dose: 133.0 mg/kg/injection, schedule: Q01DX009 (ip), vehicle: gum acacia) was 115 % of control and the T/C (dose: 150.0 mg/kg/injection, schedule: Q01DX009 (ip), vehicle: saline with Tween-80) was 95 % of control. For the same compound, the T/C [7] was 118 % of control and 122 % of control, the T/C (dose: 200.0 mg/kg/injection, schedule: Q04DX003 (ip), vehicle: gum acacia) was 104 % of control and the T/C [10] was 109 % of control. For the same compound, the T/C (dose: 300.0 mg/kg/injection, schedule: Q01DX009 (ip), vehicle: gum acacia) was 100 % of control, the T/C (dose: 400.0 mg/kg/injection, schedule: Q01DX009 (ip), vehicle: gum acacia) was 103 % of control and the T/C (dose: 400.0 mg/kg/injection, schedule: Q04DX003 (ip), vehicle: gum acacia) was 91 % of control.
For `CC(=O)OCCCl`, the T/C (dose: 50.0 mg/kg/injection, schedule: Q04DX003 (ip), vehicle: suspension in saline) was 99 % of control, the T/C (dose: 100.0 mg/kg/injection, schedule: Q04DX003 (ip), vehicle: suspension in saline) was 103 % of control and the T/C (dose: 200.0 mg/kg/injection, schedule: Q04DX003 (ip), vehicle: suspension in saline) was 103 % of control. The T/C (dose: 400.0 mg/kg/injection, schedule: Q04DX003 (ip), vehicle: suspension in saline) was 114 % of control.
For `Cc1ccc(NC(=O)OCCSCCOC(=O)Nc2ccc(C)cc2)cc1`, the T/C (dose: 25.0 mg/kg/injection, schedule: Q04DX003 (ip), vehicle: other) was 95 % of control, the T/C (dose: 50.0 mg/kg/injection, schedule: Q04DX003 (ip), vehicle: other) was 90 % of control and the T/C (dose: 100.0 mg/kg/injection, schedule: Q04DX003 (ip), vehicle: other) was 90 % of control. The T/C (dose: 200.0 mg/kg/injection, schedule: Q04DX003 (ip), vehicle: other) was 90 % of control and the T/C (dose: 400.0 mg/kg/injection, schedule: Q04DX003 (ip), vehicle: other) was 100 % of control.
With `O=[N+]([O-])c1ccc(N2CCN(CCO)CC2)c2c1no[n+]2[O-]` the T/C (dose: 15.0 mg/kg/injection, schedule: Q01DX009 (ip), vehicle: saline with Tween-80) was 154 % of control and the T/C (dose: 30.0 mg/kg/injection, schedule: Q01DX009 (ip), vehicle: saline with Tween-80) was 161 % of control.
For `N#CC(/C=C/c1ccccc1)Nc1ccccc1` (centres undefined), the T/C [9] was 104 % of control, the T/C [10] was 100 % of control and the T/C (dose: 400.0 mg/kg/injection, schedule: Q04DX003 (ip), vehicle: saline with Tween-80) was 100 % of control.
`O=S(=O)(F)c1cc(C[P+](c2ccccc2)(c2ccccc2)c2ccccc2)ccc1Cl` was tested, and the T/C (dose: 2.0 mg/kg/injection, schedule: Q01DX009 (ip), vehicle: saline with Tween-80) was 109 % of control, the T/C (dose: 8.0 mg/kg/injection, schedule: Q01DX009 (ip), vehicle: Klucel (hydroxypropylcellulose) (HPC)) was 118 % of control and the T/C (dose: 8.0 mg/kg/injection, schedule: Q01DX009 (ip), vehicle: saline + alcohol) was 123 % of control. The T/C (dose: 12.0 mg/kg/injection, schedule: Q01DX009 (ip), vehicle: saline + alcohol) was 115 % of control, the T/C (dose: 18.0 mg/kg/injection, schedule: Q01DX009 (ip), vehicle: saline + alcohol) was 123 % of control and the T/C [8] was 110 % of control.
`COc1ccc(NC(=O)c2ccccc2Cl)cc1` was tested, and the T/C [11] was 100 % of control, the T/C [12] was 104 % of control and the T/C [13] was 95 % of control. For the same compound, the T/C [14] was 91 % of control, the T/C [15] was 104 % of control and the T/C [16] was 112 % of control.
`II` was tested, and the T/C (dose: 12.0 mg/kg/injection, schedule: Q01DX010 (ip), vehicle: acetone) was 114 % of control, the T/C (dose: 25.0 mg/kg/injection, schedule: Q01DX010 (ip), vehicle: acetone) was 96 % of control and the T/C (dose: 50.0 mg/kg/injection, schedule: Q01DX010 (ip), vehicle: acetone) was 110 % of control.
`C[N+]1(C2CCC3CCC2C3O)CCOCC1` (centres undefined) was tested, and the T/C (dose: 12.5 mg/kg/injection, schedule: Q01DX009 (ip), vehicle: saline) was 91 % of control and 92 % of control, the T/C (dose: 25.0 mg/kg/injection, schedule: Q01DX009 (ip), vehicle: saline) was 100 % of control and the T/C (dose: 50.0 mg/kg/injection, schedule: Q01DX009 (ip), vehicle: saline) was 91 % of control and 92 % of control. For the same compound, the T/C [3] was 100 % of control and 90 % of control and the T/C [4] was 90 % of control.
With `CC1(C)C=C(C(Br)c2cccc(Cl)c2)C(=O)c2ccccc21` (centres undefined) the T/C [11] was 105 % of control, the T/C [12] was 104 % of control and the T/C [13] was 120 % of control. For the same compound, the T/C [14] was 104 % of control, the T/C [15] was 100 % of control and the T/C [16] was 95 % of control.
In the case of `CCCN(CCC)CC(O)c1cc2cc(C(F)(F)F)cc(C(F)(F)F)c2c2ccccc12` (centres undefined), the T/C [5] is reported as 107 % of control and the T/C [6] is reported as 114 % of control.
